Ends that are not written are not given here.

The values that follow come from patent US20100152114A1, “Antioxidant activity of GH-RH Antagonists” (priority 2008, published 2010).

Common to all, as to format: cell-based
One experiment deals with caspase 3. Kind of experiment: Western Blot of caspase 3 in LNCaP cells. To be noted: 1 μM, 72 hours, control R.I: 0.108. On the procedure: (A): is a Western Blot analysis of expression of the phosphorylated NFκB p50, caspase 3 protein and its cleaved form in LNCaP prostate cancer cell line after exposure to GHRH antagonist JMR-132 and GHRH (1-29)NH2. n=2
(§1) Prostate cancer cells LNCaP and breast cancer cells MCF-7 were obtained from American Type Culture Collection (Manassas, Va.) and were cultured as described previously. The antibodies that detect P53, PCNA, GPX1, SOD1, NQ01, Thioredoxin 1, COX2 and COX IV were purchased from Cell Signalling (Danvers, Mass.). The antibodies that detect β actin, NFκB50, pNFκB50, caspase 3 and its cleaved form were purchased from Santa Cruz Biotechnology (Santa Cruz, Calif.). The antibodies against GHRH-R (batch number: SV95) and SV1 (batch number: JH 2317/5) were raised in our laboratory. The signals for the immunoreactive proteins were visualized in a Chemi Doc XRS system (Biorad, Hercules, Calif.). The western Blot assay as well the quantification analysis of the blots was performed as described previously.
(§2) LNCaP cells cultured in vitro were exposed to 1 μM GHRH antagonist JMR-132 and 1 μM GHRH(1-29)NH2. The expression levels of NFκB p50, the phosphorylated NFκB p50, caspase 3 (M.W: 35 KDa) and the cleaved caspase 3 were detected by Western Blot. […]
A general note: Immunoblotting shows a protein as a band on a membrane.

The test system of a further experiment is COX 2. The experiment in a line: Western Blot of COX 2 in LNCaP cells. To be noted: 1 μM, 72 hour incubation, control R.I: 0.822. On the procedure:
(§3) FIG. 4: is a Western Blot analysis of expression of the enzyme COX2 and COXIV enzymes in LNCaP prostate cancer cell line after 72 hour incubation with GHRH antagonist JMR-132 and GHRH(1-29)NH2. n=2
as §1
(§4) After LNCaP prostate cancer cells cultured in vitro were exposed to 1 μM GHRH antagonist JMR-132 and GHRH(1-29)NH2, the expression levels of the enzymes COX 2 and COX IV were measured by Western Blot. […]

In a further experiment the test system is NFκB p50. The experiment in a line: Western Blot of NFκB p50 in LNCaP cells. To be noted: 1 μM, 72 hours. The method, then: (B): is a Western Blot analysis of expression of the NFκB p50. n=2
as §1, §2

The subject of another experiment is NQ01. The experiment in a line: Western Blot of NQ01 in LNCaP cells. The settings on record: 1 μM, 72 hour exposure, control R.I: 0.175. The method, then: FIG. 7: is a Western Blot analysis of expression of the antioxidant enzymes TRX1, NQ01, GPX1 and SOD1 in LNCaP prostate cancer cell line after 72 hour exposure to GHRH antagonist JMR-132 and GHRH(1-29)NH2 n=2.
as §1
LNCaP prostate cancer cell line cultured in vitro was exposed to 1 μM JMR-132 and GHRH(1-29)NH2. The expression levels of the detoxifying enzymes were measured by Western Blot. The GPX1 (M.W: 22 Kda) protein expression was higher in the cells exposed to GHRH (1-29)NH2 (R.I: 0.126) and lower in the cells incubated with GHRH antagonist JMR-132 (R.I: 0.035), as compared to control (R.I:0.107). […]

In another experiment the test system is COX IV. Kind of experiment: Western Blot of COX IV in LNCaP cells. The settings on record: 1 μM, 72 hour incubation, control R.I: 0.139. On the procedure:
as §3, §1, §4

The subject of experiment [1] is wild-type p53 tumor suppressor protein. Kind of experiment: Western Blot of wild-type p53 expression in LNCaP cells. The settings on record: 72 hour exposure, control R.I: 0.436. On the procedure: as §1
LNCaP prostate cancer cell line cultured in vitro was exposed to two concentrations of JMR-132 and GHRH(1-29)NH2 and the expression level of the p53 tumor suppressor protein (M.W: 53 KDa) was measured by Western Blot. The p53 protein expression was higher in the cells exposed to 0.1 μM and 1 μM GHRH antagonist JMR-132 (R.I: 0.583 and 0.658 respectively) and lower in the cells incubated with 0.1 μM and 1 μM GHRH (1-29)NH2 (R.I: 0.376 and 0.264 respectively) as compared to control (R.I: 0.436)

Turning to “GHRH(1-29)NH2 (YADAIFTNSYRKVLGQLSARKLLQDIMSR-NH2; UniProt P01286 32-60, looked up, fragment) [Growth Hormone-Releasing Hormone (1-29) amide, agonist peptide used for comparison with the antagonist]”, the “expression of caspase 3 protein (R.I)” value in the experiment on caspase 3 is 0.083. Besides, the “COX 2 protein expression (R.I)” value in the experiment on COX 2 amounted to 0.928. Besides, the “expression of the NFκB (R.I), not influenced” value in the experiment on NFκB p50 came out at 0.766. For the same substance, in the experiment on NQ01, the “NQ01 protein expression (R.I)” value is 0.196. The “COX IV protein expression (R.I)” value in the experiment on COX IV is 0.237. In addition, the entries for the “p53 protein expression (R.I)” value in experiment [1] (0.1 μM) and in experiment [1] (1 μM) were 0.376 and 0.264, respectively.
As for “[PhAc^0-Tyr^1, D-Arg^2, Cpa^6, Ala^8, Har^9, Tyr(Me)^10, His^11, Abu^15, His^20, Nle^27, D-Arg^28, Har^29]hGH-RH(1-29)NH2 [JMR-132]”, the “expression of caspase 3 protein (R.I)” value with caspase 3 is given as 0.120. The “COX 2 protein expression (R.I)” value with COX 2 was determined as 0.532. Further, in the experiment on NFκB p50, the “expression of the NFκB (R.I), not influenced” value is 0.786. In the experiment with NQ01, the “NQ01 protein expression (R.I)” value is recorded as 0.025. Further, the “COX IV protein expression (R.I)” value in the experiment with COX IV is recorded as 0.077. The “p53 protein expression (R.I)” value was 0.583 in experiment [1] (0.1 μM) and 0.658 in experiment [1] (1 μM).
